Measurements from patent US20030113913A1, “Method of enhancing self renewal of stem cells and uses thereof” (PETER MACCALLUM CANCER INSTITUTE, priority 2001, published 2003).

Key:
[1] = system: lin− c-kit+ Sca-1+ CD45.2+ (LKS) murine hematopoietic precursors; test: Serial transplantation of LKS hematopoietic precursors cultured with or without ATRA (congenic mouse model); format: in vivo; conditions: for donor repopulating levels of quaternary transplant recipients: CD45.2+ donor cells in peripheral blood, mean ± SEM
Protocol: 2000 FACS-enriched hematopoietic precursors (lin− c-kit+ Sca-1+) were added to wells containing media and cytokines (SCF, IL-6, IL-11 and Flt-3 ligand), and cultured without (No ATRA) or with (ATRA) 1 umol ATRA. Irradiated primary Ly5.1 recipients (6 mice per group) were transplanted with 100 000 normal Ly5.1 bone marrow cells together with 1000 noncultured (Start) Ly5.2 lin− c-kit+ Sca-1+ cells or with all cells that grew from 1000 of these precursors after 3 (3D) or 7 (7D) days in liquid suspension culture. Subsequent transplants (secondary, tertiary and quaternary) were performed using fractions of bone marrow harvested from the primary, secondary or tertiary, respectively, transplant recipients. Data are expressed as the mean +/− SEM donor cell reconstitution in the peripheral blood of transplanted recipients analyzed at 6 months (primary recipients) or 3 months (secondary, tertiary and quaternary recipients) post-transplant.
These studies may be proven using in vivo assays, preferably using small animal models, more preferably using the congenic mouse hematopoietic stem cell transplantation model. This model relies on the use of donor and recipient mice that can be distinguished from each other by the presence of different epitopes for the leukocyte common antigen, which is present on all white blood cells.
Irradiated CD45.1+ primary murine recipients were transplanted with 1×10^5 normal CD45.1+ bone marrow cells together with 1000 freshly isolated lin− c-kit+ Sca-1+ CD45.2+ (LKS) murine hematopoietic precursors or with all cells that grew from 1000 LKS after 3 or 7 days of culture with or without 1 μM ATRA. Primary recipients were euthanased 6 months post-transplant, their femoral marrows flushed and pooled within treatment groups and bone marrow from 1/10th of a femur of these mice were injected into each secondary irradiated recipient. Subsequent serial transplants were likewise performed at 4 month intervals post-transplant, with the 5th serial transplant currently being assessed. Recipient mice were analysed for multilineage repopulating donor cells (>5% CD45.2+) in each round of transplants.

RARβ2 = test: RT-PCR expression of RARβ2 in LKS+ and LKS− cells cultured with or without ATRA; format: cell-based, murine; conditions: cells derived from LKS+ and LKS− cultured with 1 μmol ATRA for 3, 7 or 14 days
Protocol: FACS-enriched hematopoietic precursors (lin− c-kit+ Sca-1+ or lin− c-kit+ Sca-1−) were added to wells containing media and cytokines (SCF, IL-6, IL-11 and Flt-3 ligand), and cultured without (No ATRA) or with (+ATRA) 1 μmol ATRA for 3, 7 or 14 days. […] LKS+=lin− c-kit+ Sca-1+ cells, LKS−=lin− c-kit+ Sca-1− cells; D=day of culture.
(§1) Consideration was then given to the expression of the different RARs by progeny derived from lin− c-kit+ Sca-1+ cells (LKS+) or lin− c-kit+ Sca-1− cells (LKS−) after they had been cultured with or without ATRA for 3, 7 and 14 days.

RARγ1 = test: RT-PCR expression of RARγ1 in LKS+ and LKS− cells cultured with or without ATRA; format: cell-based, murine
Protocol: FACS-enriched hematopoietic precursors (lin− c-kit+ Sca-1+ or lin− c-kit+ Sca-1−) were added to wells containing media and cytokines (SCF, IL-6, IL-11 and Flt-3 ligand), and cultured without (No ATRA) or with (+ATRA) 1 μmol ATRA for 3, 7 or 14 days. After culture, the cells were retrieved, mRNA prepared and expression of RAR γ 1 was analysed by RT-PCR methods. LKS+=lin− c-kit+ Sca-1+ cells, LKS−=lin− c-kit+ Sca-1− cells; D=day of culture.
as §1

- evidence of leukemia in recipient mice ([1]; recipients of ATRA-treated LKS, successive rounds of transplants): nor was there any evidence of leukemia
Compound: CC1=C(/C=C/C(C)=C/C=C/C(C)=C/C(=O)O)C(C)(C)CCC1 [ATRA, all trans-retinoic acid]
- donor repopulating levels of quaternary transplant recipients ([1]; LKS cultured 3 days with 1 μM ATRA): 20.09±8.63%
- donor repopulating levels of quaternary transplant recipients ([1]; LKS cultured 7 days with 1 μM ATRA): 14.98±5.94%
- multilineage donor reconstituting ability in serial transplant recipients ([1]; all serial transplant recipients of 3 day and 7 day ATRA-treated LKS (1 μM)): significant multilineage donor reconstituting ability
- marrow cellularity of transplanted mice ([1]; successive rounds of transplants, all treatment groups compared): no significant difference in marrow cellularity
- RARβ2 expression (RARβ2): upregulates RARβ2 in cultured cells
- RARγ1 expression (RARγ1; LKS+ cells cultured with 1 μmol ATRA for 3, 7 or 14 days): maintained
- RARγ1 expression (RARγ1; LKS− cells cultured with 1 μmol ATRA): not expressed
